Measurements: PubChem BioAssay (NCI)
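Test compounds were applied to cells in 96-well plates for 48 hours at 5 doses. GI50: concentration for 50% inhibition of growth. At the TGI there is no net growth.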

What was measured:
Assay in all cases: inhibition of tumour cell growth, NCI panel, 48 h
786-0 renal = tested on: 786-0 renal
A549 NSCLC = tested on: A549 NSCLC
NCI-H23 lung = tested on: NCI-H23 lung
OVCAR-3 ovarian = tested on: OVCAR-3 ovarian
OVCAR-5 ovarian = tested on: OVCAR-5 ovarian
HL-60(TB) leukemia = tested on: HL-60(TB) leukemia
LOX IMVI melanoma = tested on: LOX IMVI melanoma
MALME-3M melanoma = tested on: MALME-3M melanoma
TK-10 renal = tested on: TK-10 renal
HT29 colon = tested on: HT29 colon

Row | SMILES | GI50 (786-0 renal) | TGI (786-0 renal) | GI50 (A549 NSCLC) | TGI (A549 NSCLC) | GI50 (NCI-H23 lung) | TGI (NCI-H23 lung) | GI50 (OVCAR-3 ovarian) | TGI (OVCAR-3 ovarian) | GI50 (OVCAR-5 ovarian) | TGI (OVCAR-5 ovarian) | GI50 (HL-60(TB) leukemia) | TGI (HL-60(TB) leukemia) | GI50 (LOX IMVI melanoma) | TGI (LOX IMVI melanoma) | GI50 (MALME-3M melanoma) | TGI (MALME-3M melanoma) | GI50 (TK-10 renal) | TGI (TK-10 renal) | GI50 (HT29 colon) | TGI (HT29 colon)
1 | O=[N+]([O-])c1ccc2c(c1)[O][Sn][O]2 | 139 µg/mL | > 150 µg/mL | > 150 µg/mL | > 150 µg/mL | 15.3 µg/mL | 143 µg/mL | 48.1 µg/mL | > 150 µg/mL | > 150 µg/mL | > 150 µg/mL | 36.5 µg/mL | > 150 µg/mL | 66.5 µg/mL | > 150 µg/mL | 149 µg/mL | > 150 µg/mL | > 150 µg/mL | > 150 µg/mL | 86 µg/mL | > 150 µg/mL
2 | COC(=O)c1nc(N)[nH]c(=O)c1CCCCCc1c(C(=O)OC)nc(N)[nH]c1=O | – | > 50 µM | – | > 50 µM | – | > 50 µM | – | > 50 µM | – | > 50 µM | – | > 50 µM | – | > 50 µM | – | > 50 µM | – | > 50 µM | – | > 50 µM
3 | Cc1cc(N/N=C/c2nc(-c3ccc(Cl)cc3)oc2C)c2cc(Cl)ccc2n1 | 1.55 µM | 2.99 µM | 1.76 µM | 3.6 µM | 5.34 µM | 19.1 µM | 1.87 µM | 3.45 µM | 8.08 µM | 20.6 µM | 1.98 µM | 4.82 µM | 2.01 µM | 4.18 µM | 1.78 µM | 3.36 µM | 1.85 µM | 3.48 µM | 1.97 µM | 4.95 µM
4 | CC1(C)C2CCC3(C2)CS(=O)(=O)N2OC231 (stereo not given) | – | 31.2 µM | – | > 100 µM | – | 33.4 µM | – | 33.2 µM | – | 71.9 µM | – | 43.3 µM | – | 31.1 µM | – | 28.8 µM | – | 32.9 µM | – | 31.8 µM
5 | Cc1ccc(S(=O)(=O)N=Nc2c(O)[nH]c3c(Cl)cc(Cl)cc23)cc1 | – | > 100 µM | – | > 100 µM | – | > 100 µM | – | > 100 µM | – | > 100 µM | – | > 100 µM | – | > 100 µM | – | > 100 µM | – | > 100 µM | – | > 100 µM
6 | C[C-](O)O.O/C(=C\[C-](O)c1ccccc1)c1ccccc1.O/C(=C\[C-](O)c1ccccc1)c1ccccc1.[Nd+3] (stereo not given) | 9.65 µM | 32.7 µM | 18.2 µM | 48.9 µM | 4.69 µM | 29.4 µM | 0.363 µM | 27.4 µM | 12.6 µM | 33.1 µM | 2.03 µM | 8.7 µM | 4.28 µM | 17.7 µM | 16.8 µM | 65.9 µM | 20.9 µM | 94.2 µM | 10.6 µM | 22.5 µM
7 | CN=C1SC(=Nc2ccc(N(C)C)cc2)N1C | – | > 100 µM | – | > 100 µM | – | > 100 µM | – | > 100 µM | – | > 100 µM | – | > 100 µM | – | > 100 µM | – | > 100 µM | – | > 100 µM | – | > 100 µM
8 | CN(C)C(=O)O[C@@H]1CN[C@@H](C#Cc2cc3ncnc(Nc4ccc(OCc5cccc(F)c5)c(Cl)c4)c3s2)C1 | 9.48 µM | > 21.7 µM | 7.82 µM | > 25 µM | > 25 µM | > 25 µM | 7.51 µM | > 25 µM | > 25 µM | > 25 µM | 9.86 µM | > 22 µM | > 25 µM | > 25 µM | 9.41 µM | > 25 µM | 4.7 µM | > 25 µM | > 25 µM | > 25 µM
9 | Oc1ccccc1-c1nc2c3ccccc3c3ccccc3c2[nH]1 | 4.67 µM | 13.6 µM | 6.08 µM | 17.9 µM | 9.84 µM | 22.3 µM | 11.1 µM | 23.1 µM | 15 µM | 28.3 µM | 3.66 µM | 14.9 µM | 3.48 µM | 12 µM | 16.2 µM | 31.7 µM | 9.26 µM | 20.8 µM | 14 µM | 27 µM
10 | COC(=O)c1c(-c2ccccc2)sc(-c2cccc3ccccc23)c1C(=O)OC | – | > 100 µM | – | > 100 µM | – | > 100 µM | – | > 100 µM | – | > 100 µM | – | > 100 µM | – | > 100 µM | – | > 100 µM | – | > 100 µM | – | > 100 µM
11 | CNC(=S)N/N=C/c1ccc([N+](=O)[O-])s1 | – | > 10 µM | – | > 10 µM | – | > 10 µM | – | 7.24 µM | – | > 10 µM | – | > 10 µM | – | > 10 µM | – | > 10 µM | – | > 10 µM | – | > 10 µM
12 | COc1cc(Cn2c(-c3nonc3N)nc3ccccc32)ccc1C | 0.55 µM | 23.6 µM | 0.625 µM | > 100 µM | 1.02 µM | > 55.6 µM | 0.328 µM | 0.906 µM | 1.59 µM | 43.5 µM | 0.345 µM | 50.8 µM | 0.649 µM | > 100 µM | 0.526 µM | 72.7 µM | 1.09 µM | 30 µM | 0.358 µM | 7.3 µM
13 | CCOc1ccccc1NC(=O)CCc1nc(=S)[nH][nH]1 | – | > 100 µM | – | > 100 µM | – | > 100 µM | – | > 100 µM | – | > 100 µM | – | > 100 µM | – | > 100 µM | – | > 100 µM | – | > 100 µM | – | > 100 µM
14 | CCN(CC)CCCC(C)Nc1c2ccc(C)cc2nc2ccc(OC)cc12 (stereo not given) | 2.05 µM | 8.58 µM | 0.6 µM | 3.25 µM | 1.84 µM | 5.86 µM | 1.75 µM | 4.14 µM | 2.11 µM | 21.6 µM | 2.71 µM | 9.44 µM | 1.38 µM | 3.7 µM | 1.73 µM | 3.53 µM | 0.569 µM | 12.5 µM | 0.37 µM | 3.32 µM
15 | Cc1ccc2c(c1)C(c1cccc3ccccc13)OC2=O (stereo not given) | – | > 100 µM | – | > 100 µM | – | > 100 µM | – | > 100 µM | – | > 100 µM | – | > 100 µM | – | > 100 µM | – | > 100 µM | – | > 100 µM | – | > 100 µM
16 | O=C1CC(=O)OC(c2ccc([N+](=O)[O-])cc2)O1 | 1.81 µM | 3.36 µM | 2.6 µM | 7.78 µM | 2.15 µM | 5.2 µM | 1.77 µM | 3.37 µM | 2.04 µM | 4.93 µM | 2.01 µM | 5.51 µM | 1.68 µM | 3.17 µM | 2.28 µM | 7.02 µM | 1.92 µM | 4.53 µM | 1.9 µM | 3.73 µM
